Consider 1 substance from paper PMC9133036 (Nature Communications, 2022).

The assay deals with T1, human OX2R wild type (Homo sapiens, UniProt O43614).
T1 sequence (O43614 1-444): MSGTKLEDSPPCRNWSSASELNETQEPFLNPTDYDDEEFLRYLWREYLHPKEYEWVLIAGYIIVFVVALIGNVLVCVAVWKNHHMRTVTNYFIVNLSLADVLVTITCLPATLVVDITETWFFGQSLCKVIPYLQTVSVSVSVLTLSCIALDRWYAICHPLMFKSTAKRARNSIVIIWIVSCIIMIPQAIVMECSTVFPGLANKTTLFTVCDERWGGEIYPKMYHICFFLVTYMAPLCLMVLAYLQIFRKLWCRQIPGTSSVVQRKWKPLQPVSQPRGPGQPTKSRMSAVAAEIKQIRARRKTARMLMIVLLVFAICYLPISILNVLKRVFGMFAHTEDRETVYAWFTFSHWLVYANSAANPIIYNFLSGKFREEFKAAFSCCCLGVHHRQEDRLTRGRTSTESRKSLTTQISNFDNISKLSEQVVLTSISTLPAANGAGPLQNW
Briefly: β-arrestin PathHunter assay, OX2R WT. It is filed as cell-based. Also on record: expressed in transfected cells; host or cells: CHO-K1 stably expressing EA β-arrestin2. Particulars: listed as OxB.

Several values for one entry are separate records, joined by “and”; a condition that tells them apart may be missing. Equal entries are not always repeated.

Description: β-Arrestin recruitment activity was measured by using the PathHunter system (DiscoveRX) according to the manufacturer’s instruction. Receptor constructs used were the full-length wild-type (or mutant) human OX2R sequences cloned into pCMV-ProLink (DiscoveRX). […] Cells were transfected with plasmids encoding wild type or each mutant ProLink-tagged human OX2R using FuGENE HD (Promega). […] Detection reagent was added and incubated for 1 h at room temperature. Luminescent signal was detected using an EnVision plate reader (PerkinElmer). β-arrestin assays on different constructs were performed in two or three independent experiments (each done in quadruplicate). Dose response curves (shown in Supplementary Fig. 8) were fitted to the three-parameter model ‘log(agonist) vs response’ in GraphPad Prism to determine pEC50 values.

Turning to orexin B, the “beta-arrestin recruitment fold change” value was 25.382 fold and 21.415 fold and 21.711 fold and 14.809 fold (OxB concentration -6.00 (log, M)); 25.694 fold and 21.531 fold and 23.664 fold and 15.569 fold (OxB concentration -6.52 (log, M)); 27.509 fold and 22.224 fold and 24.930 fold and 18.908 fold (OxB concentration -7.00 (log, M)); 19.878 fold and 18.553 fold and 19.712 fold and 17.639 fold (OxB concentration -7.52 (log, M)); 16.213 fold and 13.992 fold and 16.040 fold and 14.141 fold (OxB concentration -8.00 (log, M)); 11.509 fold and 10.398 fold and 11.514 fold and 8.169 fold (OxB concentration -8.52 (log, M)). For the same substance, the “beta-arrestin recruitment fold change” value was 4.809 fold and 5.512 fold and 5.245 fold and 5.387 fold (OxB concentration -9.00 (log, M)); 1.518 fold and 1.553 fold and 1.554 fold and 2.080 fold (OxB concentration -10.00 (log, M)).
